Source: patent US7718613B2, “Armed peptides” (priority 2001, dated 2010)
The star is where a group is joined. Biotin = O=C1N[C@H]2[C@H](CS[C@H]2CCCCC(=O)*)N1; Myristoyl = CCCCCCCCCCCCCC(=O)*

Legend:
[1] = Cytolytic activity of pH-responsive peptides on calcein liposomes at different pH; settings: liposomes 4 μM lipid; 14 nM peptide 2, 20 nM peptide 7, 45 nM peptide 9; FIG. 4
Method: Liposomes encapsulating calcein dye were prepared by an extrusion method (Biochim. Biophys. Acta, 812 (1985) 55). Phophatidylcholine (50 mg) and cholesterol (13.08 mg) which had been dissolved in 4 ml of 50% v/v chloroform methanol solution were evaporated to form a lipid film in a round bottom flask. If it is essential to follow the fate of liposomes a lipohilic-dye such as DiI (50 μg) could be incorporated into the lipid film prior to hydration. The film was then hydrated with 4 ml of 120 mM calcein solution prepared in 10 mM sodium phosphate 20 mM Sodium chloride buffer pH 7.4. Liposomes were formed by 10 extrusion cycles through 0.2 micron or 0.1 um polycarbonate filters using the Liposofast 100 (Avestin) extruder device. The non encapsulated dye was removed by gel filtration on a PD-10 column using iso-osmotic buffer. The total lipid concentration of the liposomes was measured by the Stewart assay and adjusted to 3 mg per ml.
The cytolytic activity of pH-responsive peptides was followed by adding 2 or 3 μl of liposomes to a 2 ml assay volume and continually recording fluorescence. Buffers were made of 10 mM Na phosphate, 140 mM NaCl, 1 mM EDTA, 5 mM HEPES at several different pH values. […] In the experiments 2 ml of 10 mM Na phosphate, 140 mM NaCl, 1 mM EDTA, 5 mM HEPES buffer (at pH values indicated on the figure) containing liposomes (4 μM lipid) and (A) 14 nM peptide 2, (B) 20 nM peptide 7 (C) 45 nM peptide 9. In all cases peptides were added indicated by sharp dip in fluorescence were used. The pH values are as indicated for each trace. […] In general, it is well documented that many proteins including receptors, enzymes and antibodies has pH optimum usually closer to physiological value. On either side of the pH optimum the binding activity is reduced. However in general as activity profile is typically bell shape most proteins would tolerate at least a pH unit shift from optimum. Obviously the closer the results are to pH 7.4 the higher chances their are for efficient binding with target proteins or receptors.

[2] = Detection of biotin by pH arming (avidin cloaking, calcein liposomes)
Source text: The modified peptide retained its activity and pH responsive properties upon modification with biotin. […] In FIG. 2, the curves from top to bottom represent (i) Peptide at pH 6.6, (ii) Peptide at pH 8 and (iii) background signal in the absence of any peptide. In FIG. 2A, the curves from top to bottom represent peptide in the presence of (i) 11 piccolos of biotin and 1,2 fold excess avidin at pH 6.6, (ii) 1.2 fold excess avidin at pH 6.6, (iii) 11 piccolos of biotin and 1.2 fold avidin at pH 8 and (iv) 1.2 fold excess avidin at pH 8.
The biotin assay using pH sensitive peptide was repeated in a glass vial which could be illuminated with a small torch or blue LED light source. Specifically, the vials contained 1.2 ml of biotinylated hybrid peptide (17 nM) in PBS buffer pH 6.2 containing calcein liposomes ([…]) and 1.2 fold excess avidin. Biotin was present in vials 3 to 6 in increasing concentration. Vials are as follows: (1) Background sample containing liposomes only, (2) no biotin, (3) 12 pmoles biotin, (4) 15 pmoles biotin, (5) 17 pmoles biotin, (6) 50 pmoles Samples were illuminated by simple 3 mm blue diodes from underneath the cuvettes. Photographs in the order top to bottom, were taken at indicated times from addition of liposomes. The actual fluorescence readings taken on a fluorimeter at five minute period are also shown graphically. Five minutes after the addition of all reagents the fluorescence became clearly visible to the naked eye compared to the background which remained low and constant allowing detection of 12 picomole of biotin rapidly without any instrumentation. (FIG. 3). However, instrumentation available in most laboratories (e.g., fluorescence, absorption, luminescence, electrochemical, biosensors), can also be used for quantitative analysis by changing the signal development molecules incorporated into the liposomes.
Peptides were prepared at concentrations ranging from 1 to 0.01 mg/ml, depending on the activity of peptide, in deionised. A stock solution of avidin (5 unit per ml, one unit of avidin binds 1 μg of biotin.) was prepared in PBS pH 7.4 buffer. Biotin, from a stock solution of 10 mg/ml prepared in DMSO, was diluted 10000 fold with water to obtain working concentrations of 1 μg/ml. A typical cytolytic assay was performed in a total volume of 2 ml PBS buffer containing calcein liposomes (5 μM lipid) as prepared above. The progress of dye leakage was continually followed using excitation and emission wavelengths of 490 and 520 nm respectively. Peptide of known concentrations-was added at certain time points and the solution was rapidly mixed while continuing to measure signal. For uncloaking the peptide activity using biotin, the additions were made to the buffer sequentially in the order avidin, 2 minute incubation with biotin followed by the addition of biotinylated peptide (44 nM). The mixture was incubated for filter 2 minutes and fluorescence measurement initiated. At selected time points liposomes (7 μM) were added and solution mixed. For the cloaking experiments the additions were essentially the same except no free biotin was added. The avidin concentration was a 1.2 fold excess units to ensure complete cloaking. For evaluating dual trigger switching properties of biotinylated peptide the liposomes (7 μM lipid) in 2 ml of buffer were treated with peptide. (2.8 nM) and fluorescence measured continually. For cloaking experiments and pH arming the peptide solution (2.8 nM) was incubated with a 1.2 fold excess of avidin solution for 3 minutes and the cytolytic assay performed at pH 6.6 and 8. For the uncloaking experiments the avidin was pre-incubated with 11 picomoles of biotin solution.
In the control sample, liposomes (4 μM lipid) were added to 1.2 ml solution of peptide (14 nM) pre-incubated with a 1.2 fold excess avidin. Test samples contained biotin at known concentrations. […]

[3] = Liposome-peptide integral complex: pH-triggered calcein release and stability; settings: complex tested 40 minutes from preparation; FIG. 9
Source text: A fatty acid incorporated on the N-terminal of peptide anchors the sequence with liposomes to form integral complex which can then be used as single stable reagent that can be triggered to release the contents-of the liposomoes when the pH is ideal (i.e physiological 7.4) or acidic (e.g 6.2). In the first instance we prepared the liposome-peptide complex at a predetermined ratio of lipid-to peptide (30:1) in pH 8 buffer using peptide 10. […] The complex between liposomes and peptide was formed by adding peptide to […] of 10 mM NaP containing 140 mM NaCl, 1 mM EDTA, 5 mM Hepes pH 8 buffer, containing 100 μl of calcein encapsulating liposomes. The mixture was incubated for 20 mins to form the complex prior to use. In order to ascertain that the lysis is occurring due to the formation of complex and not as the action of the peptide per se it was essential to purify the liposome-peptide complex. The peptide to lipid ratio in this complex is 1:30. The complex was applied to a Sepharose CL-6B column. Fractions corresponding to liposomes were collected as clearly visible to the eye. Aliquots of these fractions were then tested for lytic activity at acidic and physiological pH values. The key aim was to establish that the peptide is liposome associated and would thus be eluted with liposome fraction in the void volume. We used 100 μl complex (a column purified fraction) and followed the release of Calcein at two different pH values.
FIG. 8A. […] Upper curve pH 5.8. Lower curve pH 7.4.
2 ml buffer (10 mM Na phosphate, 140 mM NaCl, 1 mM EDTA, 5 mM HEPES)+50 μl purified complex. Lipsomes used were 50 nm extruded. Curves top to bottom are pH 6.2, 6.4, 6.7, 7.0, 7.4
Complex 20 μl liposomes+60 μl pH 8 buffer+20 μl peptide (0.1 mg/ml) prepared and used within 2 minutes. 10 μl was added to each of the cuvettes containing 2 ml buffers. Top curve pH 6.2 (triton was added towards the end indicated by sharp dip in fluorescence to check full lysis), the lower curve is at pH 7.4. Samples measured simultaneously.
5 μL of complex in 2 ml of buffer tested 20 minutes after preparation. Upper curve pH 6.2, Lower curve pH 7.4.
5 μL of complex in 2 ml of buffer tested 5 hrs after preparation. Upper curve pH 6.2 and lower curve pH 7.4.
5 μL of complex in 2 ml of buffer tested 24 hrs after preparation curve pH 6.2, Lower curve pH 7.4.

Rif-1 allografts = assay: In vivo imaging of calcein release, dorsal window chamber with implanted tumours; design: species or system mice; settings: for calcein fluorescence in tumour after armed complex relative to control liposomes: 100 μl complex via tail vein, untreated (No MIBG/glucose) mice, FIG. 10
Method: Similar methodology could be used for in vivo imaging of tumours whereby the payload is a marker or diagnostic reagent sequestered inside liposomes. For instance, when using the dye calcein, the pH released dye would be detected by increase in green fluorescence. […] Complex was prepared from biotinylated peptide (1) by adding 10 μl of pH 8 buffer to 41 μg of peptide to which was added 150 μl of Hposomes encapsulating calcein. The complex was incubated briefly and 100 μl was injected via the tail vein into mice with implanted tumours. The control mice were given equivalent levels of untreated liposomes. Using the dorsal window chamber model (Biophysics. 1997,1785-1790 & Nature Biotechnology 1999,17,1033-1035,) with implanted tumours (Rif-1 allografts) direct in vivo examination of the calcein in and around the tumours was made by fluorescence microscopy and computer controlled time-lapse images. […] Note that many tumours in animals and human, Rif-1 being one example, have an ambient pH that is slightly lower than that of normal tissue (Science 1980, 210,1253-1255 & Cancer Res 1989,4373-4384). This pathophysiological feature of tumours may be used for cancer detection. Thus unarming the complex which triggers below but close to physiological pH causes the release of dye almost immediately. This way the armed complexes can be used for in vivo detection of disease and particularly for the detection of cancer. Similarly, if the payload was combination of calcein dye and anticancer drug it would be possible to detect and treat with same formulation offering major advantages for diagnosis and treatment.

Substance	pH of triggering (pH profile of calcein release from liposomes) [1] [pH]	cloaking of the complex by avidin binding ([2]; 1.2 fold excess avidin)	release in the presence of analyte (biotin) and avidin at acidic pH ([2]; biotin, 1.2 fold excess avidin, pH 6.6)	release in the presence of analyte (biotin) and avidin at pH 8 ([2]; biotin, 1.2 fold excess avidin, pH 8)	amount of biotin detected by naked eye ([2]; glass vial, blue LED, five minutes, PBS pH 6.2, 1.2 fold excess avidin) [picomole]	activity of peptide-liposome complex at acidic pH ([2]; pH 6.6, FIG. 2)	activity of peptide-liposome complex at alkaline pH ([2]; pH 8, FIG. 2)	triggering of complex [3]	calcein fluorescence in tumour after armed complex relative to control liposomes (Rif-1 allografts)	calcein fluorescence in tumour after armed complex relative to control liposomes (Rif-1 allografts; listed as biotinylated peptide (1))	triggering pH relative to another peptide (Rif-1 allografts; mouse, in vivo)
Myr-EAALAEALAEALAEGKPALISWIRRRLQQ-amide (Myristoyl-EAALAEALAEALAEGKPALISWIRRRLQQ-NH2; SMILES CCCCCCCCCCCCCC(=O)N[C@@H](CCC(=O)O)C(=O)N[C@@H](C)C(=O)N[C@@H](C)C(=O)N[C@@H](CC(C)C)C(=O)N[C@@H](C)C(=O)N[C@@H](CCC(=O)O)C(=O)N[C@@H](C)C(=O)N[C@@H](CC(C)C)C(=O)N[C@@H](C)C(=O)N[C@@H](CCC(=O)O)C(=O)N[C@@H](C)C(=O)N[C@@H](CC(C)C)C(=O)N[C@@H](C)C(=O)N[C@@H](CCC(=O)O)C(=O)NCC(=O)N[C@@H](CCCCN)C(=O)N1CCC[C@H]1C(=O)N[C@@H](C)C(=O)N[C@@H](CC(C)C)C(=O)N[C@H](C(=O)N[C@@H](CO)C(=O)N[C@@H](Cc1c[nH]c2ccccc12)C(=O)N[C@H](C(=O)N[C@@H](CCCNC(=N)N)C(=O)N[C@@H](CCCNC(=N)N)C(=O)N[C@@H](CCCNC(=N)N)C(=O)N[C@@H](CC(C)C)C(=O)N[C@@H](CCC(N)=O)C(=O)N[C@@H](CCC(N)=O)C(N)=O)[C@@H](C)CC)[C@@H](C)CC) [peptide 2]	~7										
Myr-GIGAVLRVLTTG(TLLEFLLEELLEFL)KPALISWIRRRQQ-Amide [peptide 7]	~7										
Myristoyl-EAALAEALAEALAEGK(Biotin)PALISWIRRRLQQ-NH2 [peptide 1]		efficiently cloaked	triggered	only slight release	12	active	inactive	trigger in acidic media	significant release of payload	intense image	closer to physiological pH than peptide 9
